Patent US8901118B2, “Compounds and methods for kinase modulation, and indications therefor” (Plexxikon Inc., priority 2010, dated 2014)

Tests used:
[1] = Relative solubility by turbidity in aqueous buffers (pH 1.5, 4.5, 6.8, 7.4); type: physicochemical; details: for turbidity threshold (L, M, H) 1.4: pH 1.5 (SGF); for turbidity threshold (L, M, H) 4.5: pH 4.5 (SIF); for turbidity threshold (L, M, H) 6.8: pH 6.8 (SIF); for turbidity threshold (L, M, H) 7.4: pH 7.4 (HEPES)
In short: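 Twofold DMSO dilutions of a 25 mM stock were spiked into SGF (0.5M NaCl, pH 1.5), SIF (0.05M NaH2PO4, pH 4.5 and 6.8) or HEPES buffer (10 mM HEPES, 150 mM NaCl, pH 7.4). Absorbance was read at 490, 535 and 650 nm. The endpoint is the concentration crossing O.D. 0.01, averaged across wavelengths.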

[2] = biological target: T1, CYP1A2 (Homo sapiens, UniProt P05177); test: CYP1A2 inhibition (fluorescent substrate CEC); type: in vitro ADME; details: read-out: Cyp IC50 1A2
T1 sequence (P05177 1-516): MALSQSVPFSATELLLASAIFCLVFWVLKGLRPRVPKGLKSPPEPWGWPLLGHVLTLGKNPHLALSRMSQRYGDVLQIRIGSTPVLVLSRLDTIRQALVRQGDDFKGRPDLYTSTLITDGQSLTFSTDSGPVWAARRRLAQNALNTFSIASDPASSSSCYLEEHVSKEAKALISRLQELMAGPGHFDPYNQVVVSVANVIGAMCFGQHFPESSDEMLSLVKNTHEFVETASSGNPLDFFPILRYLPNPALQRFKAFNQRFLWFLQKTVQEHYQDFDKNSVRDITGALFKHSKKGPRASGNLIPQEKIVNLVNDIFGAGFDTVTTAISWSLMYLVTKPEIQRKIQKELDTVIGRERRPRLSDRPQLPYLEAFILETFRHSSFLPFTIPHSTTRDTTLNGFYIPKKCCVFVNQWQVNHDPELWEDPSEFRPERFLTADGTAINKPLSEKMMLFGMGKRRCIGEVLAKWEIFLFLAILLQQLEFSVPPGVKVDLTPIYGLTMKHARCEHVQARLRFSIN
In short: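 Compounds, serially diluted 1:1 over 10 points in NADPH-regenerating cofactor mix with 5% acetonitrile, were preincubated 10 min at 37 °C, then run with enzyme and substrate at 37 °C (CYP1A2 15 min; CYP2C9 45 min; CYP2C19, CYP2D6 30 min). Product fluorescence gave IC50s.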

[3] = biological target: CYP3A4(BFC) (Homo sapiens, UniProt P08684); test: CYP3A4(BFC) inhibition; type: in vitro ADME; details: CYP3A4, substrate BFC; read-out: Cyp IC50 3A4(BFC)
Sequence of CYP3A4(BFC) (P08684 whole entry): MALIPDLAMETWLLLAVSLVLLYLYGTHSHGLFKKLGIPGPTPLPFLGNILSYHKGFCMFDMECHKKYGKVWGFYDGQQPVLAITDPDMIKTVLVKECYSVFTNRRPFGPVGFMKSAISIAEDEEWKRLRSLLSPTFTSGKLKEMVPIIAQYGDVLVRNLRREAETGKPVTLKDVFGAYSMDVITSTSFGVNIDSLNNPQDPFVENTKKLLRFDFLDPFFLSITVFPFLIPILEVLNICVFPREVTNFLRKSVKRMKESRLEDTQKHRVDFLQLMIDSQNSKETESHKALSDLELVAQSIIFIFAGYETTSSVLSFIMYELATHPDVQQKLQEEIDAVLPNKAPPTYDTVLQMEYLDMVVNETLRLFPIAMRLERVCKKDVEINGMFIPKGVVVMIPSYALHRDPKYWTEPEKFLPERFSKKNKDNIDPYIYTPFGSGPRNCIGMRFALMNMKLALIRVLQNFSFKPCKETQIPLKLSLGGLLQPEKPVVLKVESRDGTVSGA
In short: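 Inhibition of human CYP3A4 with the BFC substrate was measured by fluorescence loss of the metabolized product. Compounds at 100 mM in DMSO were diluted 1 μL into 82 μL acetonitrile, then 11 μL into 204 μL cofactor mix with NADPH regeneration solutions, and serially diluted 1:1 to 10 points. Plates were incubated 30 min at 37° C and read at 409 ex/460 em to obtain IC50.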

IC50 [2] [µM] | IC50 [3] [µM] | SMILES | turbidity threshold (L, M, H) 1.4 [1] | turbidity threshold (L, M, H) 4.5 [1] | turbidity threshold (L, M, H) 6.8 [1] | turbidity threshold (L, M, H) 7.4 [1]
< 5 | > 10 | CNc1ncnc2[nH]cc(C(=O)c3ccc(NC4CCCCC4)nc3F)c12 [Compound P-4102, [6-(cyclohexylamino)-2-fluoro-3-pyridyl]-[4-(methylamino)-7H-pyrrolo[2,3-d]pyrimidin-5-yl]methanone] | H (high solubility if the threshold concentration is >250 μm) | M (moderate solubility if the threshold concentration is 31.3 μM to 250 μM) | M (moderate solubility if the threshold concentration is 31.3 μM to 250 μM) | M (moderate solubility if the threshold concentration is 31.3 μM to 250 μM)
< 5 | > 10 | COc1cncc(Nc2ccc(C(=O)c3c[nH]c4ncnc(NCC(F)(F)F)c34)c(F)n2)c1 [Compound P-4103, [2-fluoro-6-[(5-methoxy-3-pyridyl)amino]-3-pyridyl]-[4-(2,2,2-trifluoroethylamino)-7H-pyrrolo[2,3-d]pyrimidin-5-yl]methanone] | L (low solubility if the threshold concentration is <31.3 μM) | M (moderate solubility if the threshold concentration is 31.3 μM to 250 μM) | M (moderate solubility if the threshold concentration is 31.3 μM to 250 μM) | M (moderate solubility if the threshold concentration is 31.3 μM to 250 μM)
> 10 | > 10 | COc1cncc(Nc2ccc(C(=O)c3c[nH]c4ncnc(NC5CCCCC5)c34)c(F)n2)c1 [Compound P-4104, [4-(cyclohexylamino)-7H-pyrrolo[2,3-d]pyrimidin-5-yl]-[2-fluoro-6-[(5-methoxy-3-pyridyl)amino]-3-pyridyl]methanone] | M (moderate solubility if the threshold concentration is 31.3 μM to 250 μM) | L (low solubility if the threshold concentration is <31.3 μM) | L (low solubility if the threshold concentration is <31.3 μM) | L (low solubility if the threshold concentration is <31.3 μM)
> 10 | > 10 | CCCNc1ncnc2[nH]cc(C(=O)c3ccc(Nc4cncc(OC)c4)nc3F)c12 [Compound P-4105, [2-fluoro-6-[(5-methoxy-3-pyridyl)amino]-3-pyridyl]-[4-(propylamino)-7H-pyrrolo[2,3-d]pyrimidin-5-yl]methanone] | M (moderate solubility if the threshold concentration is 31.3 μM to 250 μM) | M (moderate solubility if the threshold concentration is 31.3 μM to 250 μM) | M (moderate solubility if the threshold concentration is 31.3 μM to 250 μM) | M (moderate solubility if the threshold concentration is 31.3 μM to 250 μM)
< 5 | > 10 | COc1cncc(Nc2ccc(C(=O)c3c[nH]c4ncnc(NC(C)C)c34)c(F)n2)c1 [Compound P-4106, [2-fluoro-6-[(5-methoxy-3-pyridyl)amino]-3-pyridyl]-[4-(isopropylamino)-7H-pyrrolo[2,3-d]pyrimidin-5-yl]methanone] | M (moderate solubility if the threshold concentration is 31.3 μM to 250 μM) | M (moderate solubility if the threshold concentration is 31.3 μM to 250 μM) | L (low solubility if the threshold concentration is <31.3 μM) | M (moderate solubility if the threshold concentration is 31.3 μM to 250 μM)
< 5 | > 10 | COc1cncc(Nc2ccc(C(=O)c3c[nH]c4ncnc(NC5CC5)c34)c(F)n2)c1 [Compound P-4107, [4-(cyclopropylamino)-7H-pyrrolo[2,3-d]pyrimidin-5-yl]-[2-fluoro-6-[(5-methoxy-3-pyridyl)amino]-3-pyridyl]methanone] | M (moderate solubility if the threshold concentration is 31.3 μM to 250 μM) | M (moderate solubility if the threshold concentration is 31.3 μM to 250 μM) | M (moderate solubility if the threshold concentration is 31.3 μM to 250 μM) | M (moderate solubility if the threshold concentration is 31.3 μM to 250 μM)
< 5 | > 10 | CNc1ncnc2[nH]cc(C(=O)c3ccc(Nc4cncc(OC)c4)nc3F)c12 [Compound P-4108, [2-fluoro-6-[(5-methoxy-3-pyridyl)amino]-3-pyridyl]-[4-(methylamino)-7H-pyrrolo[2,3-d]pyrimidin-5-yl]methanone] | H (high solubility if the threshold concentration is >250 μm) | M (moderate solubility if the threshold concentration is 31.3 μM to 250 μM) | M (moderate solubility if the threshold concentration is 31.3 μM to 250 μM) | M (moderate solubility if the threshold concentration is 31.3 μM to 250 μM)
> 10 | > 10 | CC(C)Nc1ncnc2[nH]cc(C(=O)c3ccc(NC4CCCCC4)nc3Cl)c12 [Compound P-4109, [2-chloro-6-(cyclohexylamino)-3-pyridyl]-[4-(isopropylamino)-7H-pyrrolo[2,3-d]pyrimidin-5-yl]methanone] | L (low solubility if the threshold concentration is <31.3 μM) | L (low solubility if the threshold concentration is <31.3 μM) | L (low solubility if the threshold concentration is <31.3 μM) | L (low solubility if the threshold concentration is <31.3 μM)
< 5 | > 10 | CNc1ncnc2[nH]cc(C(=O)c3ccc(NC4CCCCC4)nc3Cl)c12 [Compound P-4110, [2-chloro-6-(cyclohexylamino)-3-pyridyl]-[4-(methylamino)-7H-pyrrolo[2,3-d]pyrimidin-5-yl]methanone] | M (moderate solubility if the threshold concentration is 31.3 μM to 250 μM) | L (low solubility if the threshold concentration is <31.3 μM) | L (low solubility if the threshold concentration is <31.3 μM) | L (low solubility if the threshold concentration is <31.3 μM)
> 10 | > 10 | Cc1ccc(Nc2ccc(C(=O)c3c[nH]c4ncnc(NC5CCCCC5)c34)c(F)n2)cn1 [Compound P-4111, [4-(cyclohexylamino)-7H-pyrrolo[2,3-d]pyrimidin-5-yl]-[2-fluoro-6-[(6-methyl-3-pyridyl)amino]-3-pyridyl]methanone] | H (high solubility if the threshold concentration is >250 μm) | L (low solubility if the threshold concentration is <31.3 μM) | L (low solubility if the threshold concentration is <31.3 μM) | L (low solubility if the threshold concentration is <31.3 μM)
< 5 | > 10 | Cc1ccc(Nc2ccc(C(=O)c3c[nH]c4ncnc(NCC(F)(F)F)c34)c(F)n2)cn1 [Compound P-4112, [2-fluoro-6-[(6-methyl-3-pyridyl)amino]-3-pyridyl]-[4-(2,2,2-trifluoroethylamino)-7H-pyrrolo[2,3-d]pyrimidin-5-yl]methanone] | M (moderate solubility if the threshold concentration is 31.3 μM to 250 μM) | M (moderate solubility if the threshold concentration is 31.3 μM to 250 μM) | M (moderate solubility if the threshold concentration is 31.3 μM to 250 μM) | H (high solubility if the threshold concentration is >250 μm)
